Converted amounts (≈) assume the structure as drawn. Where two headings read alike, the source gives them in different places.
Assays:
[1] = tested on: Pseudomonas aeruginosa (PRD-10); assay: MIC in nutrient agar, Pseudomonas aeruginosa PRD-10; format: cell-based, Pseudomonas aeruginosa ATCC 15442
Protocol: (§1) The minimum inhibitory concentration (MIC) for the compounds listed in Table I is determined for 9 bacteria, using nutrient agar, and 7 yeast and fungi, using malt yeast agar. A one percent solution of the test compound is prepared in a mixture of acetone and water. Nutrient agar is prepared at pH 6.8, representing a neutral medium, and at pH 8.2, representing an alkaline medium. The nutrient agars are prepared by adding 23 g of nutrient agar to one-liter of deionized water. In addition, the alkaline medium is prepared by adjusting a 0.04M solution of N-[tris-(hydroxymethyl)methyl]-glycine buffered deionized water with concentrated sodium hydroxide to a pH of […]. Malt yeast agar is prepared by adding 3 g yeast extract and 45 g malt agar per liter of deionized water. The specific agar is dispensed in 30 ml aliquots into 25×200 mm test tubes, capped and autoclaved for 15 minutes at 115° C. The test tubes containing the agar are cooled in a water bath until the temperature of the agar is 48° C. Then, an appropriate amount of the one percent solution of the test compound is added (except in the controls where no compound is added) to the respective test tubes so that the final concentrations are 500, 250, 100, 50, 25, 10, 5, 2.5, 1.0 and zero parts per million of the test compound in the agar, thus having a known concentration of test compound dispersed therein. The contents of the test tubes are then transferred to respective petri plates. After drying for 24 hours, the petri plates containing nutrient agar are inoculated with bacteria and those containing malt yeast agar are inoculated with yeast and fungi.
(§2) The inoculation with bacteria is accomplished by using the following procedure. Twenty-four hour-cultures of each of the bacteria are prepared by incubating the respective bacteria in tubes containing nutrient broth for 24 hours at 30° C. in a shaker. Dilutions of each of the 24 hour-cultures are made so that nine separate suspensions (one for each of the nine test bacteria) are made, each containing 10^8 colony forming units (CFU) per ml of suspension of a particular bacteria. Aliquots of 0.3 ml of each of the bacterial suspensions are used to fill the individual wells of Steer's Replicator. For each microbial suspension, 0.3 ml was used to fill three wells (i.e., three wells of 0.3 ml each) so that for the nine different bacteria, 27 wells are filled. The Steer's Replicator is then used to inoculate both the neutral and alkaline pH nutrient agar petri plates.
(§3) The inoculated petri plates are incubated at 30° C. for 48 hours and then read to determine if the test compound which is incorporated into the agar prevented growth of the respective bacteria.
(§4) Table II lists the bacteria, yeast and fungi used in the MIC test described above along with their respective American Type Culture Collection (ATCC) identification numbers.
(§5) The following MIC and MEC antimicrobial tests, whose results are shown in Tables XIII-XVII, are performed using the same methods as described hereinabove.

Candida albicans (Ca) = assay: MIC in malt yeast agar, Candida albicans; format: cell-based, Candida albicans ATCC 10231; settings: read-out: Minimum Inhibitory Concentration, Ca
Protocol: as §1
(§6) The inoculation with the yeast and fungi is accomplished as follows. Cultures of yeast and fungi are incubated for seven days on malt yeast agar at 30° C. These cultures are used to prepare suspensions by the following procedure. A suspension of each organism is prepared by adding 10 ml of sterile saline and 10 microliters of octylphenoxy polyethoxy ethanol (TRITON® X-100, a trademark of Rohm & Haas Company) to the agar slant of yeast or fungi. The sterile saline/octylphenoxy polyethoxy ethanol solution is then agitated with a sterile swab to suspend the microorganism grown on the slant. Each resulting suspension is diluted into sterile saline (1 part suspension: 9 parts sterile saline). Aliquots of these dilutions are placed in individual wells of Steer's Replicator and petri plates inoculated as previously described. The petri plates are incubated at 30° C. and read after 48 hours for yeast and 72 hours for fungi.
as §4, §5

Trichoderma viride (Tv) = assay: MIC in malt yeast agar, Trichoderma viride; format: cell-based, Trichoderma viride ATCC 8678; settings: read-out: Minimum Inhibitory Concentration, Tv
Protocol: as §1, §6, §4, §5

Bacillus subtilis (Bs) = assay: MIC in nutrient agar, Bacillus subtilis; format: cell-based, Bacillus subtilis ATCC 8473
Protocol: as §1, §2, §3, §4, §5

[2] = tested on: Enterobacter aerogenes (Ea); assay: MIC in nutrient agar, Enterobacter aerogenes; format: cell-based, Enterobacter aerogenes ATCC 13048
Protocol: as §1, §2, §3, §4, §5

Aspergillus niger (An) = assay: MIC in malt yeast agar, Aspergillus niger; format: cell-based, Aspergillus niger ATCC 16404; settings: read-out: Minimum Inhibitory Concentration, An
Protocol: as §1, §6, §4, §5

Escherichia coli (Ec) = assay: MIC in nutrient agar, Escherichia coli; format: cell-based, Escherichia coli ATCC 11229
Protocol: as §1, §2, §3, §4, §5

[3] = tested on: Pseudomonas aeruginosa (Pa); assay: MIC in nutrient agar, Pseudomonas aeruginosa; format: cell-based, Pseudomonas aeruginosa ATCC 10145
Protocol: as §1, §2, §3, §4, §5

Proteus vulgaris (Pv) = assay: MIC in nutrient agar, Proteus vulgaris; format: cell-based, Proteus vulgaris ATCC 881
Protocol: as §1, §2, §3, §4, §5

[4] = tested on: Staphylococcus aureus (Sa); assay: MIC in nutrient agar, Staphylococcus aureus; format: cell-based, Staphylococcus aureus ATCC 6538
Protocol: as §1, §2, §3, §4, §5

[5] = tested on: Klebsiella pneumoniae (Kp); assay: MIC in nutrient agar, Klebsiella pneumoniae; format: cell-based, Klebsiella pneumoniae ATCC 8308
Protocol: as §1, §2, §3, §4, §5

Fusarium oxysporum (Fo) = assay: MIC in malt yeast agar, Fusarium oxysporum; format: cell-based, Fusarium oxysporum ATCC 48112; settings: read-out: Minimum Inhibitory Concentration, Fo
Protocol: as §1, §6, §4, §5

[6] = tested on: Aureobasidium pullulan (Ap); assay: MIC in malt yeast agar, Aureobasidium pullulan; format: cell-based, Aureobasidium pullulan ATCC 16622; settings: read-out: Minimum Inhibitory Concentration, Ap
Protocol: as §1, §6, §4, §5

[7] = tested on: Saccharomyces cerevisiae (Sc); assay: MIC in malt yeast agar, Saccharomyces cerevisiae; format: cell-based, Saccharomyces cerevisiae ATCC 4105; settings: read-out: Minimum Inhibitory Concentration, Sc
Protocol: as §1, §6, §4, §5

[8] = tested on: Penicillium chrysogenum (Pc); assay: MIC in malt yeast agar, Penicillium chrysogenum; format: cell-based, Penicillium chrysogenum ATCC 9480; settings: read-out: Minimum Inhibitory Concentration, Pc
Protocol: as §1, §6, §4, §5

[9] = tested on: Salmonella choleraesuis (Sc); assay: MIC in nutrient agar, Salmonella choleraesuis; format: cell-based, Salmonella choleraesuis ATCC 10708
Protocol: as §1, §2, §3, §4, §5

[10] = Pseudomonas aeruginosa, pH 6.8, read-out: Minimum Inhibitory Concentration, PRD
[11] = Pseudomonas aeruginosa, pH 8.2; read-out: Minimum Inhibitory Concentration, PRD
[12] = Bacillus subtilis, pH 6.8; read-out: Minimum Inhibitory Concentration, Bs
[13] = Bacillus subtilis, pH 8.2; read-out: Minimum Inhibitory Concentration, Bs
[14] = Klebsiella aerogenes, pH 6.8, read-out: Minimum Inhibitory Concentration, Ea
[15] = Klebsiella aerogenes, pH 8.2, read-out: Minimum Inhibitory Concentration, Ea
[16] = Escherichia coli, pH 6.8, read-out: Minimum Inhibitory Concentration, Ec
[17] = pH 6.8, read-out: Minimum Inhibitory Concentration, Pa
[18] = pH 8.2, read-out: Minimum Inhibitory Concentration, Pa
[19] = pH 6.8, read-out: Minimum Inhibitory Concentration, Pv
[20] = pH 8.2, read-out: Minimum Inhibitory Concentration, Pv
[21] = Staphylococcus aureus, pH 6.8; read-out: Minimum Inhibitory Concentration, Sa
[22] = Staphylococcus aureus, pH 8.2; read-out: Minimum Inhibitory Concentration, Sa
[23] = pH 6.8, read-out: Minimum Inhibitory Concentration, Kp
[24] = pH 8.2, read-out: Minimum Inhibitory Concentration, Kp
[25] = Salmonella enterica, CHOLERAESUIS, pH 6.8, read-out: Minimum Inhibitory Concentration, Sc
[26] = Salmonella enterica, CHOLERAESUIS, pH 8.2, read-out: Minimum Inhibitory Concentration, Sc
[27] = Escherichia coli, pH 8.2, read-out: Minimum Inhibitory Concentration, Ec

CCCCCCCCCCSC#CC#N [E, 3-decylthio-2-propynenitrile]
MIC [1, 10]: > 500 µg/mL | MIC [1, 11]: 25 µg/mL (≈ 112 µM) | MIC (Candida albicans (Ca); malt yeast agar): > 500 µg/mL | MIC (Trichoderma viride (Tv); malt yeast agar): 500 µg/mL (≈ 2240 µM) | MIC (Bacillus subtilis (Bs); [12]): 100 µg/mL (≈ 448 µM) | MIC (Bacillus subtilis (Bs); [13]): 25 µg/mL (≈ 112 µM) | MIC [2, 14]: > 500 µg/mL | MIC [2, 15]: > 500 µg/mL | MIC (Aspergillus niger (An); malt yeast agar): > 500 µg/mL | MIC (Escherichia coli (Ec); [16]): > 500 µg/mL | MIC (Escherichia coli (Ec); Escherichia coli, pH 8.2; read-out: Minimum Inhibitory Concentration, Ec): 100 µg/mL (≈ 448 µM) | MIC [3, 17]: > 500 µg/mL | MIC [3, 18]: 500 µg/mL (≈ 2240 µM) | MIC (Proteus vulgaris (Pv); [19]): > 500 µg/mL | MIC (Proteus vulgaris (Pv); [20]): > 500 µg/mL | MIC [4, 21]: 25 µg/mL (≈ 112 µM) | MIC [4, 22]: 25 µg/mL (≈ 112 µM) | MIC [5, 23]: > 500 µg/mL | MIC [5, 24]: > 500 µg/mL | MIC (Fusarium oxysporum (Fo); malt yeast agar): 500 µg/mL (≈ 2240 µM) | MIC ([6]; malt yeast agar): > 500 µg/mL | MIC [7]: 25 µg/mL (≈ 112 µM) | MIC ([8]; malt yeast agar): 500 µg/mL (≈ 2240 µM) | MIC [9, 25]: > 500 µg/mL | MIC [9, 26]: > 500 µg/mL

CS/C=C(/Cl)C#N [Compound H, E isomer of 2-chloro-3-(methylthio)-2-propenenitrile]
MIC [1, 10]: > 500 µg/mL | MIC ([1]; Pseudomonas aeruginosa, pH 8.2, read-out: Minimum Inhibitory Concentration, PRD): 250 µg/mL (≈ 1870 µM) | MIC (Candida albicans (Ca)): 250 µg/mL (≈ 1870 µM) | MIC (Trichoderma viride (Tv)): 250 µg/mL (≈ 1870 µM) | MIC (Bacillus subtilis (Bs); Bacillus subtilis, pH 6.8, read-out: Minimum Inhibitory Concentration, Bs): > 500 µg/mL | MIC (Bacillus subtilis (Bs); Bacillus subtilis, pH 8.2, read-out: Minimum Inhibitory Concentration, Bs): 500 µg/mL (≈ 3740 µM) | MIC [2, 14]: > 500 µg/mL | MIC [2, 15]: 500 µg/mL (≈ 3740 µM) | MIC (Aspergillus niger (An)): 250 µg/mL (≈ 1870 µM) | MIC (Escherichia coli (Ec); [16]): > 500 µg/mL | MIC (Escherichia coli (Ec); [27]): 500 µg/mL (≈ 3740 µM) | MIC [3, 17]: > 500 µg/mL | MIC [3, 18]: 250 µg/mL (≈ 1870 µM) | MIC (Proteus vulgaris (Pv); [19]): > 500 µg/mL | MIC (Proteus vulgaris (Pv); [20]): 250 µg/mL (≈ 1870 µM) | MIC ([4]; Staphylococcus aureus, pH 6.8, read-out: Minimum Inhibitory Concentration, Sa): > 500 µg/mL | MIC ([4]; Staphylococcus aureus, pH 8.2, read-out: Minimum Inhibitory Concentration, Sa): 500 µg/mL (≈ 3740 µM) | MIC [5, 23]: > 500 µg/mL | MIC [5, 24]: 500 µg/mL (≈ 3740 µM) | MIC (Fusarium oxysporum (Fo)): 100 µg/mL (≈ 748 µM) | MIC [6]: 250 µg/mL (≈ 1870 µM) | MIC [7]: 500 µg/mL (≈ 3740 µM) | MIC [8]: 100 µg/mL (≈ 748 µM) | MIC [9, 25]: > 500 µg/mL | MIC [9, 26]: 500 µg/mL (≈ 3740 µM)

CCCCCCCCCCCCSC#CC#N [F, 3-dodecylthio-2-propynenitrile]
MIC ([1]; Pseudomonas aeruginosa, pH 6.8; read-out: Minimum Inhibitory Concentration, PRD): > 500 µg/mL | MIC [1, 11]: 100 µg/mL (≈ 398 µM) | MIC (Candida albicans (Ca); malt yeast agar): > 500 µg/mL | MIC (Trichoderma viride (Tv); malt yeast agar): > 500 µg/mL | MIC (Bacillus subtilis (Bs); [12]): 100 µg/mL (≈ 398 µM) | MIC (Bacillus subtilis (Bs); [13]): 100 µg/mL (≈ 398 µM) | MIC ([2]; Klebsiella aerogenes, pH 6.8; read-out: Minimum Inhibitory Concentration, Ea): > 500 µg/mL | MIC ([2]; Klebsiella aerogenes, pH 8.2; read-out: Minimum Inhibitory Concentration, Ea): > 500 µg/mL | MIC (Aspergillus niger (An); malt yeast agar): > 500 µg/mL | MIC (Escherichia coli (Ec); Escherichia coli, pH 6.8; read-out: Minimum Inhibitory Concentration, Ec): > 500 µg/mL | MIC (Escherichia coli (Ec); [27]): > 500 µg/mL | MIC [3, 17]: > 500 µg/mL | MIC [3, 18]: 500 µg/mL (≈ 1990 µM) | MIC (Proteus vulgaris (Pv); [19]): > 500 µg/mL | MIC (Proteus vulgaris (Pv); [20]): > 500 µg/mL | MIC [4, 21]: > 500 µg/mL | MIC [4, 22]: 25 µg/mL (≈ 99.4 µM) | MIC [5, 23]: > 500 µg/mL | MIC [5, 24]: > 500 µg/mL | MIC (Fusarium oxysporum (Fo); malt yeast agar): > 500 µg/mL | MIC ([6]; malt yeast agar): > 500 µg/mL | MIC ([7]; malt yeast agar): > 500 µg/mL | MIC ([8]; malt yeast agar): 500 µg/mL (≈ 1990 µM) | MIC ([9]; Salmonella enterica, CHOLERAESUIS, pH 6.8; read-out: Minimum Inhibitory Concentration, Sc): > 500 µg/mL | MIC ([9]; Salmonella enterica, CHOLERAESUIS, pH 8.2; read-out: Minimum Inhibitory Concentration, Sc): > 500 µg/mL

Source: patent US5198445A, “Composition and use of substituted 3-thio-2-propynenitriles as industrial antimicrobials” (The Dow Chemical Company, priority 1992, dated 1993)
